Reference: patent US20100227921A1, “AMINO ACID AND PEPTIDE CARBAMATE PRODRUGS OF […] USES THEREOF” (SHIRE LLC, priority 2009, published 2010)
Where “and” joins values, the source holds several entries; their conditions need not be identical. Equal values may be shown once. Marks after values point to notes of the source that are not given here.

Experiment: Comparative bioavailability after oral administration to rats (plasma LC-MS-MS)
Type: in vivo
Method: Test substances, i.e., tapentadol or tapentadol valine carbamate were administered by oral gavage to groups of male Sprague Dawley rats.
Blood samples were taken at various times after administration and submitted to analysis for the parent drug and pro-drug using a validated LC-MS-MS assay. Pharmacokinetic parameters derived from the plasma analytical data were determined using Win Nonlin.

[1] = male rat, oral tapentadol 10 mg free base equiv/kg, individual animals 1-5 (5 outlier)

Structure (SMILES): CC[C@@H](c1cccc(O)c1)[C@@H](C)CN(C)C (racemic) [Tapentadol, (−)-(1R,2R)-3-(3-dimethyl-amino-1-ethyl-2-methyl-propyl)-phenol]
- Plasma concentration of tapentadol (male rat, oral tapentadol 10 mg free base equiv/kg, 0.5 h, individual animals 1-5 (5 outlier)): 003.53 ng/mL and 001.60 ng/mL and 2.33 ng/mL and 003.48 ng/mL and 70.5 ng/mL
- Plasma concentration of tapentadol (male rat, oral tapentadol 10 mg free base equiv/kg, 1 h, individual animals 1-5 (5 outlier)): 3.98 ng/mL and 2.32 ng/mL and 5.21 ng/mL and 5.87 ng/mL and 52.6 ng/mL
- Plasma concentration of tapentadol (male rat, oral tapentadol 10 mg free base equiv/kg, 2 h, individual animals 1-5 (5 outlier)): 2.70 ng/mL and 2.28 ng/mL and 1.72 ng/mL and 3.06 ng/mL and 22.7 ng/mL
- Plasma concentration of tapentadol (male rat, oral tapentadol 10 mg free base equiv/kg, 3 h, individual animals 1-5 (5 outlier)): 1.75 ng/mL and 1.65 ng/mL and 1.68 ng/mL and 2.20 ng/mL and 10.9 ng/mL
- Plasma concentration of tapentadol (male rat, oral tapentadol 10 mg free base equiv/kg, 4 h, individual animals 1-5 (5 outlier)): 1.65 ng/mL and 3.61 ng/mL and 1.67 ng/mL and 2.62 ng/mL and 9.10 ng/mL
- Plasma concentration of tapentadol (male rat, oral tapentadol 10 mg free base equiv/kg, 6 h, individual animals 1-5 (5 outlier)): 1.38 ng/mL and 1.19 ng/mL and 1.25 ng/mL and 2.00 ng/mL and 5.77 ng/mL
- Plasma concentration of tapentadol (male rat, oral tapentadol 10 mg free base equiv/kg, 8 h, individual animals 1-5 (5 outlier)): 0.991 ng/mL and 1.08 ng/mL and 0.684 ng/mL and 1.27 ng/mL and 5.15 ng/mL
- Plasma concentration of tapentadol (male rat, oral tapentadol 10 mg free base equiv/kg, 12 h, individual animals 1-5 (5 outlier)): BLQ (BLQ Values less than level of quantification (LOQ, <0.5 ng/mL))
- Plasma concentration of tapentadol (male rat, oral tapentadol 10 mg free base equiv/kg, 24 h, individual animals 1-5): BLQ (BLQ Values less than level of quantification (LOQ, <0.5 ng/mL))
- AUCt of tapentadol [1]: 15.4 ng·h/mL and 15.3 ng·h/mL and 14.2 ng·h/mL and 20.6 ng·h/mL and 151 ng·h/mL
- Cmax of tapentadol [1]: 3.98 ng/mL and 3.61 ng/mL and 5.21 ng/mL and 5.87 ng/mL and 70.5 ng/mL
- T>50%Cmax of tapentadol [1]: 1.5 h (2×) and 1.0 h and 0.5 h
- Tmax of tapentadol [1]: 4 h
- t½ of tapentadol (male rat, oral tapentadol 10 mg free base equiv/kg, individual animals 1-5 (5 outlier; animals 1 and 4 estimates)): 6.13^c h and 2.30 h and 3.11 h and 3.83^c h and 2.59 h
- AUC of tapentadol (male rat, oral tapentadol 10 mg free base equiv/kg, individual animals 1-5 (5 outlier; animals 1 and 4 estimates, extrapolated portion >25%)): 24.6^c ng · h/mL and 18.4 ng · h/mL and 17.4 ng · h/mL and 27.8^c ng · h/mL and 156 ng · h/mL
- T>50%Cmax of tapentadol (male rat, oral tapentadol 10 mg free base equiv/kg, median, animal 5 excluded): 1.5^a h
- Plasma concentration of tapentadol (male rat, oral tapentadol valine carbamate 10 mg tapentadol free base equiv/kg, 0.5 h, individual animals 6-10): BLQ (BLQ Values less than LOQ (<0.5 ng/mL))
- Plasma concentration of tapentadol (male rat, oral tapentadol valine carbamate 10 mg tapentadol free base equiv/kg, 1 h, individual animals 6-10): BLQ (BLQ Values less than LOQ (<0.5 ng/mL))
- Plasma concentration of tapentadol (male rat, oral tapentadol valine carbamate 10 mg tapentadol free base equiv/kg, 2 h, individual animals 6-10): BLQ (BLQ Values less than LOQ (<0.5 ng/mL))
- Plasma concentration of tapentadol (male rat, oral tapentadol valine carbamate 10 mg tapentadol free base equiv/kg, 3 h, individual animals 6-10): BLQ (BLQ Values less than LOQ (<0.5 ng/mL))
- Plasma concentration of tapentadol (male rat, oral tapentadol valine carbamate 10 mg tapentadol free base equiv/kg, 4 h, individual animals 6-10): BLQ (BLQ Values less than LOQ (<0.5 ng/mL))
- Plasma concentration of tapentadol (male rat, oral tapentadol valine carbamate 10 mg tapentadol free base equiv/kg, 12 h, individual animals 6-10): BLQ (BLQ Values less than LOQ (<0.5 ng/mL))
- Plasma concentration of tapentadol (male rat, oral tapentadol valine carbamate 10 mg tapentadol free base equiv/kg, 24 h, individual animals 6-10): BLQ (BLQ Values less than LOQ (<0.5 ng/mL))
- T>50%Cmax of tapentadol (male rat, oral tapentadol valine carbamate 10 mg tapentadol free base equiv/kg, individual animals 6-10): 2 h
- T>50%Cmax of tapentadol (male rat, oral tapentadol valine carbamate 10 mg tapentadol free base equiv/kg, median): 2^a h
- concentration at 0.5 h (male, Sprague Dawley, rat, plasma, po, 10 mg free base equiv/kg, oral tapentadol 10 mg free base equiv/kg, 0.5 h, mean, animal 5 excluded, read-out: Plasma concentration of tapentadol): 2.73 ng/mL
- concentration at 1 h (male, Sprague Dawley, rat, plasma, po, 10 mg free base equiv/kg, oral tapentadol 10 mg free base equiv/kg, 1 h, mean, animal 5 excluded, read-out: Plasma concentration of tapentadol): 4.34 ng/mL
- concentration at 2 h (male, Sprague Dawley, rat, plasma, po, 10 mg free base equiv/kg, oral tapentadol 10 mg free base equiv/kg, 2 h, mean, animal 5 excluded, read-out: Plasma concentration of tapentadol): 2.44 ng/mL
- concentration at 3 h (male, Sprague Dawley, rat, plasma, po, 10 mg free base equiv/kg, oral tapentadol 10 mg free base equiv/kg, 3 h, mean, animal 5 excluded, read-out: Plasma concentration of tapentadol): 1.82 ng/mL
- concentration at 4 h (male, Sprague Dawley, rat, plasma, po, 10 mg free base equiv/kg, oral tapentadol 10 mg free base equiv/kg, 4 h, mean, animal 5 excluded, read-out: Plasma concentration of tapentadol): 2.39 ng/mL
- concentration at 6 h (male, Sprague Dawley, rat, plasma, po, 10 mg free base equiv/kg, oral tapentadol 10 mg free base equiv/kg, 6 h, mean, animal 5 excluded, read-out: Plasma concentration of tapentadol): 1.45 ng/mL
- concentration at 8 h (male, Sprague Dawley, rat, plasma, po, 10 mg free base equiv/kg, oral tapentadol 10 mg free base equiv/kg, 8 h, mean, animal 5 excluded, read-out: Plasma concentration of tapentadol): 1.01 ng/mL
- concentration at 12 h (male, Sprague Dawley, rat, plasma, po, 10 mg free base equiv/kg, oral tapentadol 10 mg free base equiv/kg, 12 h, individual animals 1-5 (5 outlier), read-out: Plasma concentration of tapentadol): 1.09 ng/mL
- AUC (male, Sprague Dawley, rat, plasma, po, 10 mg free base equiv/kg, oral tapentadol 10 mg free base equiv/kg, mean, animal 5 and estimates excluded): 17.9 ng·h/mL
- half-life (male, Sprague Dawley, rat, plasma, po, 10 mg free base equiv/kg, oral tapentadol 10 mg free base equiv/kg, mean, animal 5 and estimates excluded, read-out: t½ of tapentadol (converted)): 158 min
